Values quoted from earlier work, collected in article PMC5618157, “The Role of Disulfide Bond Replacements in Analogues of the Tarantula Toxin ProTx-II and Their Effects on Inhibition of the Voltage-Gated Sodium Ion Channel Nav1.7” (Journal of the American Chemical Society, 2017).

Assays:
mouse model (analgesia) = details: injections of ProTx-II
Description: Despite these structural studies, much remains unknown about the mechanism of action of ProTx-II on Nav1.7. […] Instead, studies into the interaction of ProTx-II and HwTx-IV with hNav1.7 proposed that both peptides interact with the domain II voltage-sensing domain (VSD), with ProTx-II also trapping the domain IV VSD in the resting configuration.[38] Mutagenesis experiments on ProTx-II by Park and co-workers,[36] and investiga ...

Nav1.7 = details: read-out: IC50 against Nav1.7
Description: ProTx-II has been the subject of particular interest from researchers as a possible lead for the treatment of chronic nociceptive pain.[4] […] Nav1.7 has been implicated as a target for the treatment of chronic pain after loss-of-function mutations in the corresponding SCN9A gene left their carriers unable to feel pain, with seemingly no ...

In the case of ProTx-II, the “analgesia in a mouse model” value (mouse model (analgesia)) is listed as “failed to elicit analgesia” and the IC50 (Nav1.7) is listed as 0.3 nM.
